Columns and labels:
Assay type in all cases: ADME
Cytochrome P450 2C9 = Cytochrome P450 2C9 (Homo sapiens, UniProt P11712); experiment: Clinically relevant inducers of human liver microsomal P450 enzymes, isoform CYP2C9; settings: microsomes
Cytochrome P450 2C19 = Cytochrome P450 2C19 (Homo sapiens, UniProt P33261); experiment: Clinically relevant inducers of human liver microsomal P450 enzymes, isoform CYP2C19; settings: microsomes
Cytochrome P450 2C8 = target: T1, Cytochrome P450 2C8 (Homo sapiens, UniProt P10632); experiment: Clinically relevant inducers of human liver microsomal P450 enzymes, isoform CYP2C8; settings: microsomes
T1 sequence (P10632 whole entry): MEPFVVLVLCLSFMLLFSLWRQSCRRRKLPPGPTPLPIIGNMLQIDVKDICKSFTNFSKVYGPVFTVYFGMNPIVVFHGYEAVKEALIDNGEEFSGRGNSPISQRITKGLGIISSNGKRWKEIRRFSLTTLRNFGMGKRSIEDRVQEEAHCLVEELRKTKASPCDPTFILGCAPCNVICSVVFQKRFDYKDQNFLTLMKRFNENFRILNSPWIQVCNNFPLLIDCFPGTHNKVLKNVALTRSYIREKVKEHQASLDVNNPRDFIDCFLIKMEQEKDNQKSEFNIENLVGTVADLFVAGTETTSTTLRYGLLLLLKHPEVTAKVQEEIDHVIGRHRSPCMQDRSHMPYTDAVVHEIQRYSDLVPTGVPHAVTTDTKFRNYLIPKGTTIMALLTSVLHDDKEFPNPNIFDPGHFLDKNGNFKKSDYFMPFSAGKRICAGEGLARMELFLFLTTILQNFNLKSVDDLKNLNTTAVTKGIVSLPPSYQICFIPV

[1] = target: T2, Nuclear receptor subfamily 1 group I member 3 (Mus musculus, UniProt O35627); experiment: (§1) Constitutive androstane receptor indirect activator
T2 sequence (O35627 whole entry): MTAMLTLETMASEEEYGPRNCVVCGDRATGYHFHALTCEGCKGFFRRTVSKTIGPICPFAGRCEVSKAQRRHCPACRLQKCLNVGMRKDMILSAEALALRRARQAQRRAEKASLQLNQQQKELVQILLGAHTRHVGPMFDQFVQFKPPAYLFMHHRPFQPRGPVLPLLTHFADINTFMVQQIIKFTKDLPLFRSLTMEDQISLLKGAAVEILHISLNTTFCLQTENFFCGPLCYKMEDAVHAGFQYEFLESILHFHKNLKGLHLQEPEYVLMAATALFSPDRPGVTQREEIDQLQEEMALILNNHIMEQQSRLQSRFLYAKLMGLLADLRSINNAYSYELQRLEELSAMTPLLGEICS

[2] = target: T3, Nuclear receptor subfamily 1 group I member 3 (Homo sapiens, UniProt Q14994); experiment: as §1
T3 sequence (Q14994 whole entry): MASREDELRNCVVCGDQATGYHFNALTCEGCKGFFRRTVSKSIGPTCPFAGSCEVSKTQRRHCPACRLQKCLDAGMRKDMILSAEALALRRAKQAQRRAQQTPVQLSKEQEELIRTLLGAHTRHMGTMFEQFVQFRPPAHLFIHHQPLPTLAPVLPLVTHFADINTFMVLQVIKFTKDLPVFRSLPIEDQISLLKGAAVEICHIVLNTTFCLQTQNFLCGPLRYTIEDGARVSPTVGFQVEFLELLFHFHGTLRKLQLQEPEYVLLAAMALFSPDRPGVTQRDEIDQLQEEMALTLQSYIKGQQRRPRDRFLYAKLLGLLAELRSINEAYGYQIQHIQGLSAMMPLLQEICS

Cytochrome P450 2B6 = target: T4, Cytochrome P450 2B6 (Homo sapiens, UniProt P20813); experiment: Clinically relevant inducers of human liver microsomal P450 enzymes, isoform CYP2B6; settings: microsomes
T4 sequence (P20813 whole entry): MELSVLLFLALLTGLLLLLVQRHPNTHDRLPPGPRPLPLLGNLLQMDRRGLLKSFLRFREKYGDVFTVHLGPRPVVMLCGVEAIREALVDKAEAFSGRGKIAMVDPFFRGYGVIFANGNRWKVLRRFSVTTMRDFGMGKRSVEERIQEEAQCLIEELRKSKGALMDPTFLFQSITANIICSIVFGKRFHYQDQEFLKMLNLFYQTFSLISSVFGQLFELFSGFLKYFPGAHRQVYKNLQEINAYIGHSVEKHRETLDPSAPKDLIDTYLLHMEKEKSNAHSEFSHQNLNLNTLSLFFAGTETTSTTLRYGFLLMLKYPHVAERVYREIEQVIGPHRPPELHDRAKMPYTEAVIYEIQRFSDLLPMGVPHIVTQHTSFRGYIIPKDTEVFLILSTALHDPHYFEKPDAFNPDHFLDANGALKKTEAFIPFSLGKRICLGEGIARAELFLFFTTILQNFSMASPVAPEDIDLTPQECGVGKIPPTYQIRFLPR

[3] = target: Microsomal glutathione S-transferase 2 (Homo sapiens, UniProt Q99735); experiment: Substrates for human microsomal glutathione transferase MGST2
[4] = target: Glutathione S-transferase 3, mitochondrial (Homo sapiens, UniProt O14880); experiment: Substrates for human microsomal glutathione transferase MGST3
Leukotriene C4 synthase = Leukotriene C4 synthase (Homo sapiens, UniProt Q16873); experiment: Substrates for human microsomal glutathione transferase LTC4S
Prostaglandin E synthase = Prostaglandin E synthase (Homo sapiens, UniProt O14684); experiment: Substrates for human microsomal glutathione transferase PTGEs
[5] = target: T5, Glutathione S-transferase Mu 2 (Homo sapiens, UniProt P28161); experiment: Substrates for human cytosolic glutathione transferase GSTM2
T5 sequence (P28161 whole entry): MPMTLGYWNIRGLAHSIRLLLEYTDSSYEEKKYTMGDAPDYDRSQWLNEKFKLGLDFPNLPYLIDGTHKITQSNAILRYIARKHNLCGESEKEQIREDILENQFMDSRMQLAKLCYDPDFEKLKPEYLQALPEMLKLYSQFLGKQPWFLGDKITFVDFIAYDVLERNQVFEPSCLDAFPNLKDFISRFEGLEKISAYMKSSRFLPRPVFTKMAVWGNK

[6] = target: Glutathione S-transferase Mu 3 (Homo sapiens, UniProt P21266); experiment: Substrates for human cytosolic glutathione transferase GSTM3
[7] = target: Hematopoietic prostaglandin D synthase (Homo sapiens, UniProt O60760); experiment: Substrates for human cytosolic glutathione transferase PGDS
Sequence of Hematopoietic prostaglandin D synthase (O60760 whole entry): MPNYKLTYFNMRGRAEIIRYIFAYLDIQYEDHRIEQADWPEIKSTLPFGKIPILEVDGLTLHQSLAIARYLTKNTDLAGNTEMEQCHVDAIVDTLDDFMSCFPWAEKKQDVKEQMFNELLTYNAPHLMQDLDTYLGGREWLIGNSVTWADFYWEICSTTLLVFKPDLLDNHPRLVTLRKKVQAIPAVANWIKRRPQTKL

Sequence of Prostaglandin E synthase (O14684 whole entry): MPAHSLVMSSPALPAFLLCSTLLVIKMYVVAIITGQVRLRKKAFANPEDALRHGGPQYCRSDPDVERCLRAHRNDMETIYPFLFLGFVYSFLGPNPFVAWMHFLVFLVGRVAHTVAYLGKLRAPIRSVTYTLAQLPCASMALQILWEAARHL
Sequence of Glutathione S-transferase 3, mitochondrial (O14880 whole entry): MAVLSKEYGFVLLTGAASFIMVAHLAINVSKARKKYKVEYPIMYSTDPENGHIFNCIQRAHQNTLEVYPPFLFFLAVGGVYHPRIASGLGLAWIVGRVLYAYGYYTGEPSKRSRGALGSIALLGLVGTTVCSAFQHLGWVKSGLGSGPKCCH
Sequence of Glutathione S-transferase Mu 3 (P21266 whole entry): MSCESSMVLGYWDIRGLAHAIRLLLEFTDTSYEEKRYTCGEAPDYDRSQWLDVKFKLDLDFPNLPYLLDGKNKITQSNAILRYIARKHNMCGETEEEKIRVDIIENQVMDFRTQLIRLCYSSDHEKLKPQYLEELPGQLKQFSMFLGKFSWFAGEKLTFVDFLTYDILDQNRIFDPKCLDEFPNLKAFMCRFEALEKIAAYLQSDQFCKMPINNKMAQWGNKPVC
Sequence of Cytochrome P450 2C9 (P11712 whole entry, canonical isoform): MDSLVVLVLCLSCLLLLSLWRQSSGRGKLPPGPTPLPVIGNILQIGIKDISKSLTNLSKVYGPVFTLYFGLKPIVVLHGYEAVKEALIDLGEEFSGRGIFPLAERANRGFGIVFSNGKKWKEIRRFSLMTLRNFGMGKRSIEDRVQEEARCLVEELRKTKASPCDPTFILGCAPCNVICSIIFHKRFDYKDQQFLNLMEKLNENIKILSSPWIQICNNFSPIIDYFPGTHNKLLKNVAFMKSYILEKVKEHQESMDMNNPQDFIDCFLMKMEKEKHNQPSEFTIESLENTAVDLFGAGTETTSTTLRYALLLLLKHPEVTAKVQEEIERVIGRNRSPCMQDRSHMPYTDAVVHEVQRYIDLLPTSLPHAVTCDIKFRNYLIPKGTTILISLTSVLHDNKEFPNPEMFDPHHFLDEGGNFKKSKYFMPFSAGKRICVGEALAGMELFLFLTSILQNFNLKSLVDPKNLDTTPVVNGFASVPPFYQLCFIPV
Sequence of Leukotriene C4 synthase (Q16873 whole entry): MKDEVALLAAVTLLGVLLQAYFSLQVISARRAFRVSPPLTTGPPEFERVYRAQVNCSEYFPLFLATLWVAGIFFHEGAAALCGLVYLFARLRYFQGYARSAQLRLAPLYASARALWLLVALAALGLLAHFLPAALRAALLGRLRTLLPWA
Sequence of Cytochrome P450 2C19 (P33261 whole entry, canonical isoform): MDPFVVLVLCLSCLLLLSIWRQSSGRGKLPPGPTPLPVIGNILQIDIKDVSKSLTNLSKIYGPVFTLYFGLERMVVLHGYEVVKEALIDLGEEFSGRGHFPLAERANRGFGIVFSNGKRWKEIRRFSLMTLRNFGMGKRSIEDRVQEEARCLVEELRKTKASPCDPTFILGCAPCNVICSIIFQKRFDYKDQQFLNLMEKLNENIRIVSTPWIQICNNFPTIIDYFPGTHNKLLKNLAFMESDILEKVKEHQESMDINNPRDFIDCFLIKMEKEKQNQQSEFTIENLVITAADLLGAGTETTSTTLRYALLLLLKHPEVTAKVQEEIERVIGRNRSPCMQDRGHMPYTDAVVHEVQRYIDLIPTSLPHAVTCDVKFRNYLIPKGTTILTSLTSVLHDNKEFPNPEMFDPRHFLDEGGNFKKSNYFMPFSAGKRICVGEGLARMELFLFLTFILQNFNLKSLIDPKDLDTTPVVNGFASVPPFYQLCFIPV
Sequence of Microsomal glutathione S-transferase 2 (Q99735 whole entry): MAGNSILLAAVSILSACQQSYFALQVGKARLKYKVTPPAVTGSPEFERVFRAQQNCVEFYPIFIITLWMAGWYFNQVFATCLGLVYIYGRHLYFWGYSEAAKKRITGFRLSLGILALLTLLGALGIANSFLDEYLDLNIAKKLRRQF

CCC1(c2ccccc2)C(=O)NC(=O)NC1=O [PHENOBARBITAL]
Activity (Cytochrome P450 2C9): Inducer
Activity (Cytochrome P450 2C19): Inducer
Activity (Cytochrome P450 2C8): Inducer
Activity [1]: indirect activator
Activity [2]: indirect activator
Activity (Cytochrome P450 2B6): Inducer

CCCCC/C=C\C\C=C/C=C/C=C/[C@@H]1O[C@H]1CCCC(=O)O [LEUKOTRIENE A4]
Activity [3]: Substrate
Activity [4]: Substrate
Activity (Leukotriene C4 synthase): Substrate

CCCCC[C@H](O)/C=C/[C@H]1C2CC(OO2)[C@@H]1C/C=C\CCCC(=O)O (stereo partly drawn)
Activity (Prostaglandin E synthase): Substrate
Activity [5]: Substrate
Activity [6]: Substrate
Activity [7]: Substrate

Reference: ChEMBL document CHEMBL1743201, “Casarett and Doull's Toxicology The Basic Science of Poisons, 7th edition” (2008)
